Measured values as given in ChEMBL document CHEMBL1137197, “Discovery of thiadiazoles as a novel structural class of potent and selective PDE7 inhibitors. Part 1: design, synthesis and structure-activity relationship studies” (Bioorg Med Chem Lett, 2004).
Values after ≈ are worked out from the molar mass of the structure shown.

Legend:
[1] = biological target: 3',5'-cyclic-AMP phosphodiesterase 4D (Homo sapiens, UniProt Q08499); assay: Inhibition of human Phosphodiesterase 4D3 expressed in baculovirus infected Sf9 cells
Sequence of 3',5'-cyclic-AMP phosphodiesterase 4D (Q08499 whole entry): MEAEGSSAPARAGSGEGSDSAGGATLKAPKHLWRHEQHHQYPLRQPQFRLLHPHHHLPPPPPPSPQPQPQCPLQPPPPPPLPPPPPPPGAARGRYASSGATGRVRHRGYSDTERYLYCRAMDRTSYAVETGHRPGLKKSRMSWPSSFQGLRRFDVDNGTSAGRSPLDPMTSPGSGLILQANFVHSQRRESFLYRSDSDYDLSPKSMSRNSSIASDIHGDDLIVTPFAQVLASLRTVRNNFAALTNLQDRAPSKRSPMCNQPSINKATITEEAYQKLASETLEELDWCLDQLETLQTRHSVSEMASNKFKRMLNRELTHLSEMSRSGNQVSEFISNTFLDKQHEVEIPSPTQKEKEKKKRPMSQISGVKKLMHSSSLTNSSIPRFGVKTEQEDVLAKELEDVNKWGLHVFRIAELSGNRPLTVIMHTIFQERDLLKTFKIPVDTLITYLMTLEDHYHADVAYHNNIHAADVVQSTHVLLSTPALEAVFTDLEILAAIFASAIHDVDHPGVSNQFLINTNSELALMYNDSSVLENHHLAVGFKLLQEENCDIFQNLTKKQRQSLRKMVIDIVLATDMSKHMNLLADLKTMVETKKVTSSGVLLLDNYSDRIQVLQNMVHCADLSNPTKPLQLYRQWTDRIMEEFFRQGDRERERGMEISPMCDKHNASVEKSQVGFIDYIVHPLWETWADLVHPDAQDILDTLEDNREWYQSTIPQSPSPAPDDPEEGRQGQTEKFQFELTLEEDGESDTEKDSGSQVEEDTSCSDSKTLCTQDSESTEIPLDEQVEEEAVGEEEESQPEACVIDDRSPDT

[2] = biological target: High affinity 3',5'-cyclic-AMP phosphodiesterase 7A (Homo sapiens, UniProt Q13946); assay: Inhibition of human Phosphodiesterase 7A1 expressed in baculovirus infected Sf9 cells
Sequence of High affinity 3',5'-cyclic-AMP phosphodiesterase 7A (Q13946 whole entry): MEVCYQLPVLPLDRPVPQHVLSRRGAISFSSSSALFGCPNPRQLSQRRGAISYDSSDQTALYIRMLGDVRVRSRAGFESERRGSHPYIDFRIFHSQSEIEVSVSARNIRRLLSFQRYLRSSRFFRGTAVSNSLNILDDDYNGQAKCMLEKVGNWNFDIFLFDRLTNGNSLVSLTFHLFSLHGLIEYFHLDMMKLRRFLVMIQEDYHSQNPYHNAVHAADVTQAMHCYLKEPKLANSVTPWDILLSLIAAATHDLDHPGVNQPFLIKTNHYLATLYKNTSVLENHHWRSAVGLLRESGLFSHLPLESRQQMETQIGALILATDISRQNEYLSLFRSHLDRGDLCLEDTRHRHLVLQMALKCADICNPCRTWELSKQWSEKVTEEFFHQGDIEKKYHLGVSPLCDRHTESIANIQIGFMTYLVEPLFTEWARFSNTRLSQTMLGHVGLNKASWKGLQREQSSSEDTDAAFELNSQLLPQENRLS

Phosphodiesterase 1 = Phosphodiesterase 1 (Homo sapiens, UniProt P54750+Q01064+Q14123); assay: Inhibition of human Phosphodiesterase 1 purified from THP-1 cells; type: cell-free
[3] = biological target: cGMP-specific 3',5'-cyclic phosphodiesterase (Homo sapiens, UniProt O76074); assay: Inhibition of human Phosphodiesterase 5 purified from MCF-7 cells; type: cell-free, MCF7
[4] = biological target: cGMP-inhibited 3',5'-cyclic phosphodiesterase 3A (Homo sapiens, UniProt Q14432); assay: Inhibition of human Phosphodiesterase 3A3 expressed in baculovirus infected Sf9 cells
Sequence of cGMP-inhibited 3',5'-cyclic phosphodiesterase 3A (Q14432 whole entry): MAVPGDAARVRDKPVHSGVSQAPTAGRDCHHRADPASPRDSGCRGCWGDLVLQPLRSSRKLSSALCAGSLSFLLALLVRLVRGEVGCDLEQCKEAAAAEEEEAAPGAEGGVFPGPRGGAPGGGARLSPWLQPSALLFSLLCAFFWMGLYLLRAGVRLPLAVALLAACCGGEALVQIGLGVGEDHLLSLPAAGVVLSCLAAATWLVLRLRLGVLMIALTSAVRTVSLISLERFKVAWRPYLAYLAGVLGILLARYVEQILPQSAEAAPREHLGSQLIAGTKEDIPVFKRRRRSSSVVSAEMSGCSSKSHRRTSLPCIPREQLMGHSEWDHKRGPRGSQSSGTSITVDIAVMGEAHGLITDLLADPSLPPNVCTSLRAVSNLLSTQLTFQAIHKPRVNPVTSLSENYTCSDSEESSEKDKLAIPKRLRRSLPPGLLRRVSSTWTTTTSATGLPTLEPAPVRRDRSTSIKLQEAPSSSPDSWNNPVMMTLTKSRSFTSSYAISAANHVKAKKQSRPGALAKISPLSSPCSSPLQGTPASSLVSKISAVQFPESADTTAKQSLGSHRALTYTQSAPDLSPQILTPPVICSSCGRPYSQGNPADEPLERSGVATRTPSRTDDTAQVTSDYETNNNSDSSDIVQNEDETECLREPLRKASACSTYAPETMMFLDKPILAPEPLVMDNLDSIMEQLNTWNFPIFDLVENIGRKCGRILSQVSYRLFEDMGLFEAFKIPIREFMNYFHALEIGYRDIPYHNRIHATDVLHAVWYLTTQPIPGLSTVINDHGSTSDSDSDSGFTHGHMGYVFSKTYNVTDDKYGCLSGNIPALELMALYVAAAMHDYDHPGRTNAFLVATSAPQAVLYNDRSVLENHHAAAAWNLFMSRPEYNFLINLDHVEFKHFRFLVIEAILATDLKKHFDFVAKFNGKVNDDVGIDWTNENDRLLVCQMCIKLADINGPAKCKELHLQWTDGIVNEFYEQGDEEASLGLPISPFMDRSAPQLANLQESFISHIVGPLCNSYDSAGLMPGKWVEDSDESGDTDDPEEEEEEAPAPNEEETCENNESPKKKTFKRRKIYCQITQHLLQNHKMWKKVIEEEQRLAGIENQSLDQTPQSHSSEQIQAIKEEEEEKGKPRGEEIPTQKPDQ

[5] = Solubility at 7.4 pH; type: physicochemical; details: pH 7.4

SMILES	IC50 [1] [µM]	IC50 [2] [µM]	IC50 (Phosphodiesterase 1) [µM]	IC50 [3] [µM]	IC50 [4] [µM]	solubility [5] [µg/mL]
Cn1nc(-c2ccc3c(N)ncnc3c2)s/c1=N\C1CCCCC1	> 101	0.02	–	–	–	–
Cn1nc(-c2cccc(Cl)c2)s/c1=N\C1CCCCC1	> 101	–	–	–	–	–
Cc1cc(-c2nn(C)/c(=N/C3CCCCC3)s2)ccc1C(N)=O	44.7	0.93	–	–	–	–
Cn1nc(-c2ccc(Cl)cc2)s/c1=N\C1CCCC1	81.5	3.08	–	–	–	–
COC(=O)c1ccc(-c2nn(C)/c(=N/C3CCCCC3)s2)cc1	95.5	–	–	–	–	–
Cn1nc(-c2ccc(Cl)cc2)s/c1=N\C1CCCCC1	57	1.5	–	–	–	–
Cn1nc(-c2ccc(Cl)cc2)s/c1=N\c1ccc(F)c(C(=O)O)c1	39.7	0.16	21.58	17.9	17	–
Cn1nc(-c2ccccc2Cl)s/c1=N\C1CCCCC1	40	–	–	–	–	–
Cn1nc(-c2ccccc2O)s/c1=N\C1CCCCC1	71	6.4	–	–	–	–
Cn1nc(-c2ccc(Cl)cc2)s/c1=N\C1CCCCCCC1	> 101	1.65	–	–	–	–
Cn1nc(-c2ccc(Cl)cc2)s/c1=N\c1ccc(F)cc1	> 101	2.2	85.68	101	> 101	–
Cn1nc(-c2ccc(Cl)cc2)s/c1=N\C1CN2CCC1C2 (stereo unspecified)	79	5.9	–	–	–	–
Cn1nc(-c2ccc(Cl)cc2)s/c1=N\C1CCC(N)CC1 (stereo unspecified)	> 101	5.9	–	–	–	–
Cn1nc(-c2ccc(Cl)cc2)s/c1=N\c1cccc(F)c1	> 101	6.6	> 101	> 101	> 101	–
Cn1nc(-c2ccc(Cl)cc2)s/c1=N\c1ccc(C(=O)O)cc1	> 101	4.6	28.93	40.3	30.7	–
Cn1nc(-c2ccc(Cl)cc2)s/c1=N\c1ccccc1O	> 101	5.3	> 101	> 101	> 101	–
Cn1nc(-c2ccc(Cl)cc2)s/c1=N\c1c(O)cccc1C(=O)O	58.2	1.31	28.84	18.8	49.4	–
Cn1nc(-c2ccc(Cl)cc2)s/c1=N\C1(CO)CCCC1	> 101	4	–	–	–	–
Cn1nc(-c2ccc(Cl)cc2)s/c1=N\c1ccccc1	38	2.95	–	–	–	–
CN(C)CCN(C)C(=O)c1ccc(-c2nn(C)/c(=N/C3CCCCC3)s2)cc1	> 101	0.47	–	–	–	–
CCC(CC)/N=c1\sc(-c2ccc(Cl)cc2)nn1C	> 101	5.6	–	–	–	–
COc1cc(-c2nn(C)/c(=N/C3CCCCC3)s2)ccc1C(N)=O	> 101	0.47	–	–	–	–
Cn1nc(-c2ccc(Cl)cc2)s/c1=N\c1cccc(C(N)=O)c1	44.5	1.63	7.83	> 101	2.65	–
Cn1nc(-c2ccc(Cl)cc2)s/c1=N\c1cccc(O)c1	> 101	1.8	9.81	10.9	6.13	–
Cc1nc(N)c2ccc(-c3nn(C)/c(=N/C4CCCCC4)s3)cc2n1	92.3	0.0039	–	–	–	–
Cn1nc(-c2ccc(Cl)cc2)s/c1=N\C1CC2CCC1C2 (stereo unspecified)	> 101	–	–	–	–	–

Now from value to compound:

IC50 [1] [µM]	IC50 [2] [µM]	IC50 (Phosphodiesterase 1) [µM]	IC50 [3] [µM]	IC50 [4] [µM]	solubility [5] [µg/mL]	SMILES
11.9	0.06	–	–	–	–	COc1c(O)cc(-c2nn(C)/c(=N/C3CCCCC3)s2)cc1O
21.3	0.14	16.38	7.27	7.47	–	Cn1nc(-c2ccc(Cl)cc2)s/c1=N\c1cccc(C(=O)O)c1
25.7	0.56	–	–	–	–	Cn1nc(-c2ccc(N)cc2)s/c1=N\C1CCCCC1
4.26	0.08	3.34	7	1.71	–	Cn1nc(-c2ccc(Cl)cc2)s/c1=N\c1cccc(-c2nn[nH]n2)c1
30	7.5	–	–	–	–	COC(=O)c1ccccc1-c1nn(C)/c(=N/C2CCCCC2)s1
19	0.14	–	–	–	–	COC(=O)c1cccc(-c2nn(C)/c(=N/C3CCCCC3)s2)c1
11	0.15	–	–	–	–	Cn1nc(-c2ccc(S(N)(=O)=O)cc2)s/c1=N\C1CCCCC1
33.3	0.06	–	–	–	83 (≈ 214 µM)	CN(C)CCNC(=O)c1ccc(-c2nn(C)/c(=N/C3CCCCC3)s2)cc1
22.3	–	–	–	–	–	Cn1nc(-c2cccc(C(=O)O)c2)s/c1=N\C1CCCCC1
13	1.7	> 101	> 101	101	–	Cn1nc(-c2ccc(Cl)cc2)s/c1=N\c1ccc(O)cc1
37	1.9	–	–	–	–	Cn1nc(-c2ccc(Cl)cc2)s/c1=N\C(C)(C)CO
5.9	0.06	–	–	–	–	Cn1nc(-c2ccc(Cl)c(S(N)(=O)=O)c2)s/c1=N\C1CCCCC1
22.2	–	–	–	–	–	Cn1nc(-c2cccc(O)c2)s/c1=N\C1CCCCC1
12.2	–	–	–	–	–	Cn1nc(-c2ccc(O)cc2)s/c1=N\C1CCCCC1
23	2.13	40.34	20.2	8.57	–	Cn1nc(-c2ccc(Cl)cc2)s/c1=N\c1cccc(CC(=O)O)c1
36.3	5.7	> 101	> 101	47.2	–	Cn1nc(-c2ccc(Cl)cc2)s/c1=N\c1cccc(C#N)c1
19.3	0.12	–	–	–	–	Cn1nc(-c2ccc(C(N)=O)c(O)c2)s/c1=N\C1CCCCC1

IC50 [1] [µM]	IC50 [2] [µM]	IC50 (Phosphodiesterase 1) [µM]	IC50 [3] [µM]	IC50 [4] [µM]	solubility [5] [µg/mL]	SMILES
5.84	0.02	–	–	–	–	CCNS(=O)(=O)c1cc(-c2nn(C)/c(=N/C3CCCCC3)s2)ccc1Cl
15	–	–	–	–	–	Cn1nc(-c2cccc(S(N)(=O)=O)c2)s/c1=N\C1CCCCC1
32.2	–	–	–	–	–	Cn1nc(-c2ccc(C(=O)O)cc2)s/c1=N\C1CCCCC1
15.3	0.06	–	–	–	–	Cn1nc(-c2ccc(C(N)=O)cc2)s/c1=N\C1CCCCC1
19.3	0.09	–	–	–	–	Cn1nc(-c2cccc(C(N)=O)c2)s/c1=N\C1CCCCC1
26	0.08	–	–	–	–	Cn1nc(-c2ccc(C(N)=O)c(N)c2)s/c1=N\C1CCCCC1
34.2	–	–	–	–	–	CC(=O)Nc1ccc(-c2nn(C)/c(=N/C3CCCCC3)s2)cc1
5.63	0.44	3.56	7.56	1.89	–	Cn1nc(-c2ccc(Cl)cc2)s/c1=N\c1cccc(-c2noc(O)n2)c1
6.3	4.8	–	–	–	–	Cn1nc(-c2ccc(Cl)cc2)s/c1=N\C1CCC1
14.2	0.26	9.28	5.18	9.83	–	Cn1nc(-c2ccc(Cl)cc2)s/c1=N\c1cccc(C(=O)O)c1O
20.5	1.37	14.06	23.6	20.5	–	Cc1cccc(C(=O)O)c1/N=c1\sc(-c2ccc(Cl)cc2)nn1C
26	7.7	–	–	–	–	CCC/N=c1\sc(-c2ccc(Cl)cc2)nn1C
8.77	0.03	–	–	–	17 (≈ 39.6 µM)	Cn1nc(-c2ccc(C(=O)NCCN3CCOCC3)cc2)s/c1=N\C1CCCCC1
25	0.13	–	–	–	–	Cn1nc(-c2ccc(S(C)(=O)=O)cc2)s/c1=N\C1CCCCC1
7.05	0.15	5.23	3.97	5.58	–	Cn1nc(-c2ccc(Cl)cc2)s/c1=N\c1ccc(O)c(C(=O)O)c1
17	3.9	–	–	–	–	CC(C)/N=c1\sc(-c2ccc(Cl)cc2)nn1C
